Experimental data from article PMC12469503, “Exploring the Antimicrobial and Antiviral Properties of Cryptic Peptides from Human Fibrinogen” (International Journal of Molecular Sciences, 2025).
Read-outs that look alike come from different tables or passages of the source. Ends that are not written are not given here.

What was measured:
[1] = test system: Escherichia coli ATCC 25922
[2] = test system: Acinetobacter baumanii ATCC 17878
[3] = test system: Klebsiella pneumonia ATCC 700603; details: for MIC K. pne.: ATCC 700603
[4] = test system: Pseudomonas aeruginosa PAO1; details: for MIC: Table 2, Pseudomonas aeruginosa PAO1
[5] = test system: Staphylococcus aureus ATCC 6538P; details: ATCC 6538
[6] = test system: Salmonella enteriditis 706 RIVM
[7] = test system: Pseudomonas aeruginosa PA14
[8] = test system: Pseudomonas aeruginosa RP73 (clinical isolate)
[9] = test system: Enterococcus faecalis ATCC 29212
[10] = test system: Salmonella typhimurium ATCC 14028; assay: MIC, broth microdilution; format: cell-based; details: Table 1; for MIC S. typ.: broth microdilution, Nutrient Broth 0.5×, overnight 37 °C, minimum of three independent experiments
Method: MIC values were determined on Gram-positive and Gram-negative bacteria by the broth microdilution method for antimicrobial peptides previously described [33, 89] with minor modifications.
Bacterial strains were grown in Luria-Bertani (LB) medium overnight at 37 °C and then diluted in Nutrient Broth at a final concentration of ~5 × 10^5 CFU/mL per well. Twofold serial dilutions of peptides were carried out in the test wells to obtain concentrations ranging from 50 μM to 0.05 μM. Plates were incubated overnight at 37 °C.
MIC value was defined as the lowest concentration at which growth was inhibited. Three independent experiments were performed for each MIC value.

[11] = test system: Pseudomonas aeruginosa PAO1
[12] = test system: Staphylococcus aureus ATCC 6538P; details: for MBC: ATCC 6538; for MBC/MIC: Table 2, Staphylococcus aureus ATCC 6538P
HCoV-229E = details: Vero cells; for antiviral activity against HCoV-229E: co-treatment assay, from 50 μM peptide
[13] = test system: P. aeruginosa PAO1 biofilm; assay: Antibiofilm attachment assay, confocal microscopy; details: peptide 20 µM added with bacteria, stained after 4 h, Live/Dead BacLight, three independent experiments, t-test vs control
[14] = format: physicochemical
Excerpt: The six peptides were produced in the recombinant form by using a previously described strategy that exploit the frog protein onconase (ONC) as a carrier to drive the peptide to inclusion bodies. The fusion proteins were expressed in Escherichia coli strain BL21DE3, using the pET22b(+) vector and named: ONC-DCless-H6-(P)FIBα-GVV27, ONC-DCless-H6-(P)FIBα-SFR22, ONC-DCless-H6-(P)FIBβ-GVV28, ONC-DCless-H6-(P)FIBβ-NWK23, ONC-DCless-H6-(P)FIBγ-GII30, ONC-DCless-H6-(P)FIBγ-TWK25 (nucleotide and amino acid sequences are reported in Supplementary Figure S1). […] Peptides were released by hydrolysis of an acidic labile “Asp-Pro” sequence leading to recombinant peptides endowed with an additional Pro residue at the N-terminus. Thus, the recombinant forms of these peptides are herein named (P)FIBα-GVV27, (P)FIBα-SFR22, (P)FIBβ-GVV28, (P)FIBβ-NWK23, (P)FIBγ-GII30, (P)FIBγ-TWK25. Hydrolysis efficiencies of 95% were estimated for all the recombinant proteins (Supplementary Figure S3). To purify the recombinant peptides from the hydrolysis mixtures, the carrier and the uncleaved fusion protein were selectively precipitated by increasing the pH to 7 exploiting the fact that ONC is insoluble at pH higher than 5, whereas most AMPs are soluble also at neutral pH. […] Therefore, purification of (P)FIBα-SFR22, (P)FIBα-GVV27, (P)FIBβ-NWK23 and (P)FIBγ-TWK25 was first performed by selective precipitation, to remove the carrier and the uncleaved fusion protein, followed by Reverse Phase High-Performance Liquid Chromatography (RP-HPLC) on a C18 column, whereas purification of (P)FIBβ-GVV28 and (P)FIBγ-GII30 was performed directly by RP-HPLC omitting the selective precipitation step. Final yields of all recombinant peptides ranged from approximately 6 to 12 mg per liter of LB culture. Peptide purity, as determined by RP-HPLC, typically varied between 95% and 99% (Supplementary Figure S4).
Peptides (P)FIBα-GVV27, (P)FIBα-SFR22, (P)FIBβ-NWK23 and (P)FIBγ-TWK25 were separated from the carrier and the uncleaved fusion proteins as previously described. The hydrolysis mixture was neutralized to pH 7–7.2 by adding 1 M NH3 and incubated for 1 h at 25 °C under nitrogen atmosphere in a water bath. […] Supernatant and insoluble fraction were analyzed by SDS-PAGE. Concentration of the peptide into the soluble fraction was determined by spectrophotometric analyses using extinction coefficients (Supplementary Table S1) calculated by the ProtParam tool. After the selective precipitation step, purification of the peptide was performed by RP-HPLC. The linear gradients used are listed in Supplementary Table S2. Purification of (P)FIBβ-GVV28 and (P)FIBγ-GII30 was performed directly by RP-HPLC, omitting the selective precipitation step. Purified peptides were lyophilized and dissolved in deionized water. Samples were stored at −80 °C under nitrogen atmosphere. Purity of peptides was evaluated by RP-HPLC on Europa Protein 300 C18 column (5 μm, 25 × 1) using the linear gradients listed in Supplementary Table S2. The identity of the peptides was confirmed by mass spectrometry.

[15] = test system: P. aeruginosa PAO1 biofilm; assay: Antibiofilm detachment assay, confocal microscopy; details: peptide 20 µM on 24 h pre-formed biofilm, further 24 h, Live/Dead BacLight, three independent experiments
[16] = Table 2, Pseudomonas aeruginosa PAO1
[17] = Table 1, broth microdilution, Nutrient Broth 0.5×, overnight 37 °C, minimum of three independent experiments
[18] = Table 1, broth microdilution, Nutrient Broth 0.5×, ~5 × 10^5 CFU/mL, overnight 37 °C, minimum of three independent experiments
[19] = Table 1, control antibiotic, twofold dilutions from 64 µg/mL

Molecule	MIC E. coli ([1]; ATCC 25922)	MIC K. pne. [3]	MIC PAO1 [4]	MIC S. aur. [5]	MIC S. ent. [6]	MIC PA14 ([7]; PA14)	MIC RP73 ([8]; RP73 (clinical isolate))	MIC E. fae. ([9]; ATCC 29212)	MIC S. typ. [10]	MBC/MIC [11, 16]	MBC/MIC [12]	MIC A. bau. [2, 17]	MIC PA14 [7, 17]	MIC E. fae. [9, 17]	further results
SFRGADYSLRAVRMKIRPLVTQ [FIBα-SFR22]	25 µM	>50 µM	12.5 µM	12.5 µM	50 µM	12.5 µM	12.5 µM	6.25 µM	50 µM	–	–	–	–	–	MIC A. bau. ([2]; ATCC 17878): 25 µM
H-PGIIWATWKTRWYSMKKTTMKIIPFNRLTIG [(P)FIBγ-GII30]	12.5 µM	25 µM	12.5 µM	6.25 µM	12.5 µM	–	3.12 µM	–	6.25 µM	1	1	6.25 µM	6.25 µM	6.25 µM	MBC ([11]; PAO1): 12.5 µM; MBC [12]: 6.25 µM; antiviral activity against HCoV-229E (HCoV-229E): strong antiviral activity; IC50 (HCoV-229E; read-out: IC50 against HCoV-229E, virus pre-treatment assay (virus incubated with peptide at 37 °C before infection)): 1300 nM; fluorescence signal of SYTO 9 (live cells), attachment assay [13]: significantly reduced; solubility / aggregation at pH 7 [14]: particularly prone to aggregation and precipitation
H-PNWKGSWYSMRKMSMKIRPFFPQQ [(P)FIBβ-NWK23]	–	25 µM	6.25 µM	3.12 µM	12.5 µM	3.12 µM	3.12 µM	–	6.25 µM	1	1	6.25 µM	–	6.25 µM	MBC ([11]; PAO1): 6.25 µM; MBC [12]: 3.12 µM; MIC E. coli [1, 18]: 6.25 µM; antiviral activity against HCoV-229E (HCoV-229E): absence of efficacy; fluorescence signal of SYTO 9 (live cells), attachment assay [13]: lower, not significant reduction; solubility / aggregation at pH 7 [14]: soluble at pH 7
NWKGSWYSMRKMSMKIRPFFPQQ [FIBβ-NWK23]	6.25 µM	25 µM	6.25 µM	3.12 µM	–	3.12 µM	6.25 µM	6.25 µM	12.5 µM	–	–	–	–	–	MIC A. bau. ([2]; ATCC 17878): 6.25 µM; MIC S. ent. [6, 17]: 12.5 µM
CC[C@H](C)[C@H](NC(=O)[C@H](CCCCN)NC(=O)[C@H](CCC(=O)O)NC(=O)[C@H](CCCCN)NC(=O)[C@H](CO)NC(=O)[C@H](CCCCN)NC(=O)[C@H](CCCNC(=N)N)NC(=O)[C@H](Cc1ccccc1)NC(=O)[C@H](Cc1ccccc1)NC(=O)[C@H](CC(=O)O)NC(=O)CNC(=O)[C@H](CC(C)C)NC(=O)[C@@H](N)CC(C)C)C(=O)NCC(=O)N[C@@H](CCCCN)C(=O)N[C@@H](CCC(=O)O)C(=O)N[C@@H](Cc1ccccc1)C(=O)N[C@@H](CCCCN)C(=O)N[C@@H](CCCNC(=N)N)C(=O)N[C@H](C(=O)N[C@H](C(=O)N[C@@H](CCC(N)=O)C(=O)N[C@@H](CCCNC(=N)N)C(=O)N[C@H](C(=O)N[C@@H](CCCCN)C(=O)N[C@@H](CC(=O)O)C(=O)N[C@@H](Cc1ccccc1)C(=O)N[C@@H](CC(C)C)C(=O)N[C@@H](CCCNC(=N)N)C(=O)N[C@@H](CC(N)=O)C(=O)N[C@@H](CC(C)C)C(=O)N[C@H](C(=O)N1CCC[C@H]1C(=O)N[C@@H](CCCNC(=N)N)C(=O)N[C@H](C(=O)N[C@@H](CCC(=O)O)C(=O)N[C@@H](CO)C(=O)O)[C@@H](C)O)C(C)C)[C@@H](C)CC)C(C)C)[C@@H](C)CC [LL37, reference compound]	–	–	–	–	–	–	–	–	–	–	–	–	–	–	MBC ([11]; Table 2, Pseudomonas aeruginosa PAO1, […], subculture on LB agar): 1.56 µM; MIC ([4]; minimum of three independent experiments): 1.56 µM
Polymyxin B [reference compound]	–	–	–	–	–	–	–	–	–	–	–	–	–	–	MIC E. coli (antibiotics) [1, 19]: 0.5 µg/mL; MIC A. bau. (antibiotics) [2, 19]: 0.5 µg/mL; MIC K. pne. (antibiotics) [3, 19]: 0.5 µg/mL; MIC PAO1 (antibiotics) [4, 19]: 0.25 µg/mL; MIC S. ent. (antibiotics) [6, 19]: 0.5 µg/mL; MIC PA14 (antibiotics) [7, 19]: 0.25 µg/mL; MIC RP73 (antibiotics) [8, 19]: 0.12 µg/mL; MIC S. typ. (antibiotics) ([10]; control antibiotic, twofold dilutions from 64 µg/mL): 0.12 µg/mL
H-PGVVWVSFRGADYSLRAVRMKIRPLVTQ [(P)FIBα-GVV27]	12.5 µM	50 µM	6.25 µM	6.25 µM	12.5 µM	–	3.12 µM	–	6.25 µM	1	1	6.25 µM	6.25 µM	6.25 µM	SYTO 9 / PI signal, detachment assay [15]: reduction of the SYTO 9 signal coupled with an increase of the PI signal; MBC ([11]; PAO1): 6.25 µM; MBC [12]: 6.25 µM; antiviral activity against HCoV-229E (HCoV-229E): strong antiviral activity; fluorescence signal of SYTO 9 (live cells), attachment assay [13]: significantly reduced; solubility / aggregation at pH 7 [14]: soluble at pH 7
GVVWMNWKGSWYSMRKMSMKIRPFFPQQ [FIBβ-GVV28]	6.25 µM	25 µM	6.25 µM	3.12 µM	–	6.25 µM	6.25 µM	6.25 µM	12.5 µM	–	–	–	–	–	MIC A. bau. ([2]; ATCC 17878): 6.25 µM; MIC S. ent. [6, 17]: 12.5 µM
Colistin [reference compound]	–	–	–	–	–	–	–	–	–	1	–	–	–	–	MBC ([11]; Table 2, Pseudomonas aeruginosa PAO1, antibiotics): 0.5 µg/mL; MIC ([4]; antibiotics): 0.5 µg/mL
GVVWVSFRGADYSLRAVRMKIRPLVTQ [FIBα-GVV27]	12.5 µM	25 µM	6.25 µM	6.25 µM	12.5 µM	–	3.12 µM	–	6.25 µM	–	–	6.25 µM	6.25 µM	6.25 µM	–
NC[C@H]1O[C@H](O[C@H]2[C@H](O)[C@@H](O[C@H]3O[C@H](CO)[C@@H](O)[C@H](N)[C@H]3O)[C@H](N)C[C@@H]2N)[C@H](N)C[C@@H]1O [Tobramycin]	–	–	–	–	–	–	–	–	–	2	2	–	–	–	–
TWKTRWYSMKKTTMKIIPFNRLTIG [FIBγ-TWK25]	–	6.25 µM	3.12 µM	1.56 µM	6.25 µM	–	–	6.25 µM	3.12 µM	–	–	3.12 µM	3.12 µM	–	MIC E. coli [1, 18]: 3.12 µM; MIC RP73 [8, 17]: 3.12 µM
